In data set [1] the test system is Influenza B virus. Nature of the data set: microbe, parasite or virus in culture. The note with it: B/Ned/537/05, MDCK.
Data set [2] relates to MDCK. Nature of the data set: Cytotoxicity against dog MDCK cells assessed as reduction in cell viability measured after 5 to 6 days by MTS assay. The class given is cell-based, Canis lupus familiaris. (Formazan colour is commonly taken as a measure of viable cells.)
Data set [3] relates to Coxsackievirus B4. The class given is functional. The note with it: Enterovirus B, Vero.
The nature of data set [4]: cells. Conditions: Influenza A virus, MDCK.
The subject of data set [5] is Influenza A virus. The class given is functional, cell-based. The note with it: A/Ned/378/05(H1N1), MDCK.
In data set [6] the test system is Vesicular stomatitis virus. Nature of the data set: microbe, parasite or virus in culture. Conditions: HeLa.
The subject of data set [7] is Influenza A virus. The class given is functional, cell-based. The note with it: A/Ned/378/05(H1N1), MDCK. The source holds these as a separate data set.
Data set [8] relates to Respiratory syncytial virus. The class given is functional, cell-based. The note with it: human respiratory syncytial virus, HeLa.
The nature of data set [9]: cells. The note with it: Influenza A virus, MDCK. This is another data set of the same source.
Data set [10] can be described thus: cells. The note with it: MDCK.
For data set [11], the system named is Sindbis virus. The class given is functional. Conditions: Vero.
The test system of data set [12] is Coxsackievirus B4. The class given is functional, cell-based. Conditions: Enterovirus B, HeLa.
Data set [13] has as its system Yellow fever virus. Nature of the data set: microbe, parasite or virus in culture. Conditions: Vero.
Data set [14] deals with Mammalian orthoreovirus 1. The class given is functional. Conditions: Mammalian orthoreovirus 1, Vero.
The test system of data set [15] is Punta Toro virus. The class given is functional. The note with it: Vero.
For data set [16], the system named is Human respirovirus 3. Nature of the data set: microbe, parasite or virus in culture. The note with it: Human respirovirus 3, Vero.
The nature of data set [17]: Cytotoxicity against human HeLa cells assessed as alterations in cell morphology by microscopic analysis. The class given is cell-based.
The test system of data set [18] is Respiratory syncytial virus. Nature of the data set: microbe, parasite or virus in culture. Conditions: human respiratory syncytial virus, HeLa.

SMILES strings stand for the structures.

In general, EC50 refers to the concentration that produces a half-maximal response. Read a high EC50 as lower potency in that assay. Broadly, the CC50 is the concentration at which the toxic effect on the cells reaches its halfway point.

With `CC1(C)N=C(N)N=C(Nc2ccc(Cl)cc2)N1`, the EC50 is > 100 µM in data set [1]; > 100 µM in data set [3]; > 83 µM in [4]; > 100 µM in data set [5]; > 100 µM in [6]; > 100 µM in data set [7]. In addition, the half-maximal effective concentration (EC50) in data set [8] is > 100 µM; in data set [9], > 83 µM; in [10], > 100 µM; in data set [11] it was > 100 µM; in data set [12], > 100 µM; in data set [13], > 100 µM. Moreover, the concentration for a half-maximal effect (EC50) in data set [14], in data set [15] and in data set [16] was > 100 µM in each case. For the same compound, the CC50 in [2] is > 100 µM.

For the compound `CC1(C)N=C(N)N=C(N)N1c1cccc(C(F)(F)F)c1`, the cytotoxic concentration (CC50) in data set [2] was found to be 6.1 µM. The concentration giving a half-maximal response (EC50) is > 100 µM in data set [3]; > 100 µM in [6]; > 100 µM in data set [11]; > 100 µM in [12]; 0.03 µM in [18]; > 100 µM in data set [13]. For the same compound, in data set [16], the EC50 was > 100 µM. Besides, the MCC in data set [17] is 20 µM.

For `N=C(N)NC(=N)Nc1ccc(Cl)cc1` [4-CHLOROPHENYLBIGUANIDE], the concentration giving a half-maximal response (EC50) in data set [1] was > 100 µM; in [3], > 100 µM; in data set [4] it was > 83 µM; in data set [5] it was > 100 µM; in [6], > 100 µM; in data set [7], > 100 µM. Also, the concentration for a half-maximal effect (EC50) is > 100 µM in data set [8]; > 83 µM in [9]; > 100 µM in [10]; > 100 µM in data set [11]; > 100 µM in data set [12]; > 100 µM in [13]. Moreover, the EC50 in data set [14], in [15] and in data set [16] was > 100 µM in each case. In addition, the CC50 in [2] was > 100 µM.

For the compound `CC1(C)N=C(N)N=C(N)N1c1ccc(Cl)c(Cl)c1` [CHLORCYCLOGUANIL], the 50% effective concentration (EC50) in [1] was 0.08 µM; in [3] it was > 100 µM; in data set [4] it was 1.4 µM; in data set [5], 0.55 µM; in [6], > 100 µM; in data set [7] it was 0.35 µM. For the same compound, the EC50 in [8] is 0.0075 µM; in [9], 0.72 µM; in data set [10] it was 0.03 µM; in [11] it was > 100 µM; in data set [12], > 100 µM; in data set [13], > 100 µM. Also, the 50% effective concentration (EC50) in data set [14] is 3.8 µM; in data set [15], > 100 µM; in [16], > 100 µM. The cytotoxic concentration (CC50) in [2] came out at 6.7 µM.

On to `[H]/N=C(\N/C(=N/[H])Nc1ccc(Cl)cc1)NC(C)C` [PROGUANIL], for which the EC50 in data set [1] is > 100 µM; in [3], > 100 µM; in data set [4], > 83 µM; in data set [5], > 100 µM; in data set [6], > 100 µM; in data set [7], > 100 µM. The EC50 is > 100 µM in data set [8]; > 83 µM in [9]; > 100 µM in [10]; > 100 µM in data set [11]; > 100 µM in data set [12]; > 100 µM in data set [13]. Besides, the half-maximal effective concentration (EC50) in [14], in data set [15] and in [16] was > 100 µM throughout. Further, the CC50 in data set [2] is > 100 µM.
